Measurements reported in US5272151A, “Aminoacyl and oligopeptidyl derivatives of allopurinol exhibiting immunostimulatory activity, and pharmaceutical formulations containing these substances” (Sigma-Tau Industrie Farmaceutiche Riunite S.p.A., priority 1991, dated 1993).

Experiments:
P. mirabilis = assay: Protective effect in experimentally-infected immunosuppressed mice (P. mirabilis); assay type: in vivo; details: for % Mortality, P. mirabilis: cyclophosphamide-immunodepressed CD1 mice, 25 mg/kg/d i.p. day -5 through day -1, challenge day 0
Description: (§1) Evaluation of the protective effects of ST 689 and ST 789 in experimentally-infected immunosuppressed mice.
(§2) Male CDl mice (Charles River, Italy), 6-10 weeks old, were used in experimental groups of 9-20 animals. Systemic infection in the mice was achieved by intrapcritoncal inoculation of a pathogenic species of Klebsiclla (K. oxytoca), Proteus (P. mirabilis), Serratia (S. marcescens),and Hscherichia (E. coli). Eighteen-hour broth cultures were used to prepare infectious inocula that were either sublethal (Proteus) or which corresponded to an LD30 (Serratia) and an LD10 (Escherichia, Klebsiella). The bacterial challenge, inoculated i.p. in 0.5 mL of 5% gastric mucin, was designed to cause the death of animals immunodepressed with cyclophosphamide (administered i.p. in 0.2 mL of sterile physiological solution at a dosage of 100 mg/kg) 5 days prior to infection. The compounds were administered i.p. at daily doses of 25 mg/kg from day -5 to day -1 with respect to the day of bacterial inoculation (day 0). The results are expressed as % mortality and were statistically analysed using Fisher's test (Biostatistics in Pharmacology, vol. 2, Pergamon Press).

[1] = system: plaque-forming cells (PFC) in the spleen of mice immunised with sheep red blood cells (SRBC); assay: Production of primary antibodies (Jerne test) in the spleen of mice immunised with SRBC; assay type: in vivo; details: for PFC/10^6 cells (x ± S.E.) / PFC/spleen (x ± S.E.): 25 mg/kg/d i.p. from day -3 through day 3, SRBC immunisation day 0, B6D2F1 mice
Procedure: The effects of ST 689 and ST 789 on the production of primary antibodies (Jerne test) in the spleen of mice immunised with sheep red blood cells (SRBC).
Male hybrid B6 D2 F1 mice (Charles River, Italy), 7-8 weeks old, were used in experimental groups of 6 animals each. In this test, each animal was examined individually.
The compounds were administered intraperitoneally at a daily dose of 25 mg/kg from day -3 to day +3, where day 0 was the day of immunisation. The experimental procedure employed is described in Jerne, N. K. et al., Transpl. Rev., 18:30 (1974). Animals were immunised by i.p. administration of a suspension of SRBC (1×10^8 cells/mouse in 0.2 mL of PBS buffer). Five days following this treatment, the animals were killed and their spleens sterilely removed. The splenocytes were suspended at a concentration of 1×10^7 cells/ml, and 0.1 mL of this splenocyte suspension was mixed with 2 mL of warm Hank's agar medium +0.2 mL of 10% SRBC in PBS buffer and incubated in a Petri dish for 60 min at 37° C. (the samples were tested in triplicate). Complement (2 mL of guinea pig serum diluted 1:10 with Tris buffer) was added, and the Petri dishes incubated for 30 min at 37° C. In the presence of complement the cells secreted anti-SRBC antibodies, which evoked a haemolytic reaction. Such a reaction is indicative of lytic plaques in the samples contained in the Petri dishes.
The results are expressed as: […]
a) number of plaque-forming cells (PFC) in a population of 1×10^6cells;
b) number of PFC in intact spleens.
The values obtained were analysed using Dunnett's test (Biostatistics in Pharmacology, vol. 2, Pergamon Press) to ascertain the statistical significance of differences between the treated and control animal groups.

[2] = Weight survey of rats in the IL-2 test (Test 5); assay type: in vivo, rat; details: Fisher rats; 25 mg/kg daily i.p. day -5 through day -1
Procedure: Male Fisher rats (Charles River, Italy), 3 months old, in experimental groups of 5 animals, were treated with the substances at daily dosages of 25 mg/kg from day -5 through day -1 relative to the day the spleens were sampled (day 0). The experimental procedure employed was that reported in [1]. To suspensions of splenocytes, prepared in RPMI 1640 with 10% FCS+1×10^-5 M β-mercaptoethanol and standardised to a concentration of 1×10^7 cells/mL, were added equal volumes of ConA at a concentration of 18 μg/mL/well. After incubating for 48 h at 37° C. in the presence of 5% CO2 the samples were centrifuged and the supernates collected. Serial dilutions of the supernates were added to CTLL-2 cells (a line of T-cells requiring IL-2 for growth) standardised at 5×10^4 cells/mL. Following an overnight incubation, the samples were labelled with ^3 H--TdR (0.5 μCi/well)for 6 h, then the cells were collected on filters using a cell harvester, and counted (cpm) using a β-counter. The results are expressed in units of IL-2, comparing the counts in the samples to a standard curve prepared with purified IL-2 . . . ls1.

Sarcoma 180 = assay: Protective effect in mice carrying Sarcoma 180; assay type: in vivo; details: for % survival: CD1 mice carrying Sarcoma 180; for % survival / Died/Total / MST (Mean Survival Time; median): 25 mg/kg/d i.p. day +1 through +10; for Died/Total / MST (Mean Survival Time; median): CD1 mice, 1×10^4 Sarcoma 180 cells i.p.; for MST (Mean Survival Time; median): 25 mg/kg/day; for Body weight (x ± S.E.) of Sarcoma 180-carrying animals: 25 mg/kg/d i.p., in g
Procedure: Evaluation of the protective effect of ST 689 and ST 789 in tumour-carryingmice,
Outbred male CDI mice (Charles River, Italy), 7 weeks old, were used. Experimental groups containing 10 animals were inoculated i.p. with 1×10^4 Sarcoma 180 cells (ATCC, Rockville, Md., U.S.A.) in 0.1 mL of TC 199 medium. The compounds were administered intraperitoneally in 0.2 mL of sterile physiological solution at daily doses of 25 mg/kg from day +1 through day +10 relative to the day of tumour transplant (day 0). In addition, body weights of the animals were followed from day 0 through day 20. The weights of the animals can be indicative of the development of neoplastic processes. The activity of the compounds was evaluated in terms of % survival expressed as the Mean Survival Time (MST). The data reported in Table 4 indicate a substancial protective effect of ST 689 compared to ST 789 vis-a-vis % survival (20% vs. 10%) in terms of MST (21 vs. 17).

E. coli = assay: Protective effect in experimentally-infected immunosuppressed mice (E. coli); assay type: in vivo; details: cyclophosphamide-immunodepressed CD1 mice; 25 mg/kg/d i.p. day -5 through day -1; challenge day 0
Description: as §1, §2

[3] = day +13, number in parentheses = animals still alive
[4] = day +15, number in parentheses = animals still alive
[5] = day +17, number in parentheses = animals still alive
[6] = day +20, number in parentheses = animals still alive

Row | SMILES | % Mortality, P. mirabilis (P. mirabilis) | PFC/10^6 cells (x ± S.E.) [1] | PFC/spleen (x ± S.E.) [1] | Body weight [2] | Spleen weight [2] | % survival (Sarcoma 180) | Died/Total (Sarcoma 180) | MST (Mean Survival Time; median) (Sarcoma 180) | Body weight (x ± S.E.) of Sarcoma 180-carrying animals (Sarcoma 180; day 0) | Body weight (x ± S.E.) of Sarcoma 180-carrying animals (Sarcoma 180; day +1) | Body weight (x ± S.E.) of Sarcoma 180-carrying animals (Sarcoma 180; day +3) | Body weight (x ± S.E.) of Sarcoma 180-carrying animals (Sarcoma 180; day +6) | Body weight (x ± S.E.) of Sarcoma 180-carrying animals (Sarcoma 180; day +8) | Body weight (x ± S.E.) of Sarcoma 180-carrying animals (Sarcoma 180; day +10) | Body weight (x ± S.E.) of Sarcoma 180-carrying animals (Sarcoma 180; [3]) | Body weight (x ± S.E.) of Sarcoma 180-carrying animals (Sarcoma 180; [4]) | Body weight (x ± S.E.) of Sarcoma 180-carrying animals (Sarcoma 180; [5]) | Body weight (x ± S.E.) of Sarcoma 180-carrying animals (Sarcoma 180; [6]) | % Mortality, E. coli (E. coli) | further results
1 | N=C(N)NCCC[C@H](NC(=O)OCCCCCn1cnc2c(=O)[nH]cnc21)C(=O)O [ST 789, N-alfa-5-(hypoxanthin-9-yl)-pentyloxycarbonylarginine, reference compound] | 11,1% | 220 ± 30 PFC/10^6 cells | 35011 ± 4761 PFC/spleen | 275.0 ± 3.76 g | 539.2 ± 12.11 mg | 10% | 9/10 | 17 | 22.8 ± 0.30 | 23.6 ± 0.34 | 24.8 ± 0.30 | 27.6 ± 0.46 | 29.5 ± 0.64 | 31.5 ± 0.92 | 32.2 ± 0.96 | 33.4 ± 1.05 | 33.7 ± 1.46 | 34.8 ± 3.90 | 20% | 
2 | O=c1[nH]cnc2c1cnn2CCCCCO [ST 689, 1,5-dihydro-1-(5-hydroxypentyl)-4H-pyrazolo-[3,4-d]-pyrimidin-4-one] | 10% | 303 ± 47 PFC/10^6 cells | 64839 ± 15985 PFC/spleen | 271.6 ± 4.76 g | 511.0 ± 22.35 mg | 20% | 8/10 | 21 | 23.0 ± 0.38 | 23.7 ± 0.34 | 24.5 ± 0.50 | 27.1 ± 0.62 | 28.3 ± 0.97 | 28.4 ± 0.81 | 28.6 ± 0.89 | 30.5 ± 1.28 | 32.5 ± 1.70 | 32.6 ± 1.85 | 40% | Protective activity in Proteus infection, in words (P. mirabilis; immunodepressed mice, 25 mg/kg/d i.p.): equal to that of ST 789; Activity in terms of the number of PFC per spleen, in words ([1]; 25 mg/kg/d i.p., increase not statistically significant with respect to the control): more active than ST 789; Neoplastic proliferation judged from body weights, in words (Sarcoma 180; compared to animals treated with ST 789): diminution of neoplastic proliferation
